Reference: patent US20230158151A1 (NURIX THERAPEUTICS, INC., priority 2021, published 2023)

Molecular target: T1, ITK (Mus musculus, UniProt Q03526)
T1 construct: administered to mice orally; from tissue; host or cells: mouse splenocytes (spleen) after oral dosing
T1 sequence (Q03526 1-625): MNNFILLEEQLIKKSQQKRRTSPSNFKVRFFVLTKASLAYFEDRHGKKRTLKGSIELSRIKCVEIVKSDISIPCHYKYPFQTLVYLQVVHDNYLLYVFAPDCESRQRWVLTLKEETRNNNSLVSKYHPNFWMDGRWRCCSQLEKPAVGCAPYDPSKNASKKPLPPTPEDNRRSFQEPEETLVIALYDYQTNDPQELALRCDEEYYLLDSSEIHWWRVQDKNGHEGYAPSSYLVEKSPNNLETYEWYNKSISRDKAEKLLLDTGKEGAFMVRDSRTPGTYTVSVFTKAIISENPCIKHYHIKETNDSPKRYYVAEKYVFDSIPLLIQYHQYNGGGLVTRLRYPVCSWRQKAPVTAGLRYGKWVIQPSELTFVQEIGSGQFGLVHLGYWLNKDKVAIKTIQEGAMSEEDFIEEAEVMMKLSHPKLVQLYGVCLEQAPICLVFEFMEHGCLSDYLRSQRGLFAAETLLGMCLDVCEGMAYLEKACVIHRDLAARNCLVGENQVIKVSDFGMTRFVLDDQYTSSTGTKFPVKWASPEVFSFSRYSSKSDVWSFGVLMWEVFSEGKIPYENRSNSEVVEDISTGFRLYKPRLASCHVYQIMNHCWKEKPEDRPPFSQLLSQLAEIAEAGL
Assay: Western Assay for ITK Degradation in Mouse Splenocytes after oral administration
Format: in vivo
Conditions: % ITK remaining in mouse splenocytes
Experimental: Compounds 30 and 31 were administered to mice orally. After 6 hours, splenocytes cells were harvested. ITK was evaluated by Western blotting. Media was removed and cell pellets were lysed in 100 μL lysis buffer (RIPA buffer (Fisher, PI89901), cOmplete Mini EDTA-free protease inhibitor (Sigma 11836170001), Protease Inhibitor Cocktail (Sigma, P2714), Phosphatase Inhibitor Cocktail 2 and 3 (Sigma, P5726 and P0044), Benzonase (Sigma, E1014)). Cells were lysed overnight at −20° C. Following thaw, cells were centrifuged for 10 min at 13000 rpm, then transferred to new tube. Protein levels were determined by BCA Assay performed according to manufacturer's protocol (EMD Millipore, cat. no. 71285-3). Samples were combined with (4×) LDS Sample Buffer and (10×) Reducing Agent and H2O to equally load 20 μg protein per lane of a 26-well NuPAGE 4-12% Bis-Tris protein gel (1.0 mm, Thermo cat. no. NP0326). Samples were separated by running gels at constant 150 V in NuPAGE MES SDS Running Buffer. Following electrophoresis, proteins were transferred to nitrocellulose membranes using an iBlot Gel Transfer Device and iBlot Gel Transfer Stacks (Thermo cat. no. IB21001 and IB301001) and transfer method P3 (20V for 7 min). Membranes were blocked for 1 hr in 5% milk solution (TBS (0.2% Tween-20)). Following blocking, membranes were incubated with primary antibody (1:1000 CST ITK (2F12) #2380) overnight at 4° C. with gentle shaking. Blots were washed 2× in TBS (0.2% Tween-20), 30 min per wash. Following washes, blots were incubated in secondary HRP-conjugated antibody (Promega anti-Mouse IgG (H+L) HRP cat. no. W4021), 1:5000 in 5% milk solution (TBS (0.2% Tween-20)), for 1 hr at room temperature with gentle shaking. Blots were washed 2× in TBS (0.2% Tween-20), 30 min per wash. Blots were incubated with 1:1 mix of ECL reagents 1 & 2 (Amersham ECL Western Blotting Detection Reagent, cat. no. RPN2106) for 2 min at room temperature. Bands were visualized using a Protein Simple imager. Blots were then re-probed with a combination of anti-actin antibody (Sigma Monoclonal Mouse Anti-β-Actin (clone AC-15), cat. no. A5441) and secondary HRP-conjugated antibody (Promega anti-Mouse IgG (H+L) HRP, cat. no. W4021) and similar steps were taken for incubation, wash, detection and visualization steps as above. The data was analyzed using Alpha View software. The densitometric reading for each sample band was normalized to that of the corresponding actin band per lane. Approximate % ITK remaining per sample was calculated as follows: […]
Once % ITK remaining has been calculated for each sample, groups are averaged together to show an means % ITK normalized to actin and relative to control.
Compounds 30 and 29 were administered to mice orally. After 6 hours or 24 hours, splenocytes cells were harvested. ITK was evaluated by Western blotting. Plasma concentrations were determined by LC/MS/MS. Plasma samples were protein precipitated by addition of 100 μl of acetonitrile containing 50 ng/ml of internal standard. The resulting mixture was vortexed and centrifuged at 4000 RPM for 5 minutes. An aliquot of the resultant supernatant (75 μl) was added to 75 μl of 0.1% formic acid in water to constitute the final sample for injection. Samples were injected on a Shimadzu Exion LC Binary Gradient AD Pump HLPC system connected to a Sciex QTRAP 6500+ mass spectrometer. Five μl of sample was injected onto a Waters Acquity UPLC BEH C18 column 130A (2.1×30 mm, […]) at 40° C. utilizing a flow rate of 700 μl/minute. Mobile Phase A was 0.1% formic acid in water and mobile phase B was 0.1% formic acid in acetonitrile. A linear gradient of 15-95% B over 1.0 minute was used. The mass spectrometer was operated in positive ion electrospray mode with multiple reaction monitoring for maximum sensitivity. Sciex Analyst software (version 1.6.3) was used for LC/MS/MS instrument control and acquisition. […]

ITK (%) 60 mpk PO, 24 h (24 h)	ITK (%) 90 mpk PO, 6 h (90 mpk PO)	ITK (%) 90 mpk PO, 24 h (90 mpk PO, 24 h)	SMILES
>100%	–	–	CC1(C)CCc2c(-c3cc4ccc(C(=O)N5CCC(CN6CCN(c7ccc(C8CCC(=O)NC8=O)nc7)CC6)CC5)cc4[nH]3)n[nH]c2C1 (centres unmarked) [Compound 35, 3-(5-(4-((1-(2-(6,6-dimethyl-4,5,6,7-tetrahydro-1H-indazol-3-yl)-1H-indole-6-carbonyl)piperidin-4-yl)methyl)piperazin-1-yl)pyridin-2-yl)piperidine-2,6-dione]
>100%	–	–	CC1(C)CCc2c(-c3cc4ccc(C(=O)N5CCC(CN6CCN(c7ccc(C8CCC(=O)NC8=O)cc7)CC6)CC5)cc4[nH]3)n[nH]c2C1 (centres unmarked) [Compound 37, 3-(4-(4-((1-(2-(6,6-dimethyl-4,5,6,7-tetrahydro-1H-indazol-3-yl)-1H-indole-6-carbonyl)piperidin-4-yl)methyl)piperazin-1-yl)phenyl)piperidine-2,6-dione]
–	45%	–	CC1(C)CCc2c(-c3cc4ccc(N5CCC6(CCN(CC7CCN(c8ccc(C9CCC(=O)NC9=O)cn8)CC7)CC6)C5=O)cc4[nH]3)n[nH]c2C1 (centres unmarked) [Compound 24, 3-(6-(4-((2-(2-(6,6-dimethyl-4,5,6,7-tetrahydro-1H-indazol-3-yl)-1H-indol-6-yl)-1-oxo-2,8-diazaspiro[4.5]decan-8-yl)methyl)piperidin-1-yl)pyridin-3-yl)piperidine-2,6-dione]
–	8%	–	C[C@@]12Cc3[nH]nc(-c4cc5ccc(N6CCC7(CCN(CC8CCN(c9ccc(C%10CCC(=O)NC%10=O)cn9)CC8)CC7)C6=O)cc5[nH]4)c3C[C@@H]1C2(F)F (stereo partly drawn) [Compound 28, 3-(6-(4-((2-(2-((4aS,5aR)-5,5-difluoro-5a-methyl-1,4,4a,5,5a,6-hexahydrocyclopropa[f]indazol-3-yl)-1H-indol-6-yl)-1-oxo-2,8-diazaspiro[4.5]decan-8-yl)methyl)piperidin-1-yl)pyridin-3-yl)piperidine-2,6-dione]
–	14%	14%	CC1(C)CCc2c(-c3cc4ccc(C(=O)N5CCN(CC6CCN(c7ccc(C8CCC(=O)NC8=O)cc7)CC6)CC5)cc4[nH]3)n[nH]c2C1 (centres unmarked) [Compound 38, 3-(4-(4-((4-(2-(6,6-dimethyl-4,5,6,7-tetrahydro-1H-indazol-3-yl)-1H-indole-6-carbonyl)piperazin-1-yl)methyl)piperidin-1-yl)phenyl)piperidine-2,6-dione]
–	113%	–	C[C@@]12Cc3[nH]nc(C(=O)Nc4cnn(CC5CN(C(=O)C6CCN(c7ccc(C8CCC(=O)NC8=O)cn7)CC6)C5)c4)c3C[C@@H]1C2(F)F (stereo partly drawn) [Compound 22, (4aS,5aR)—N-(1-((1-(1-(5-(2,6-dioxopiperidin-3-yl)pyridin-2-yl)piperidine-4-carbonyl)azetidin-3-yl)methyl)-1H-pyrazol-4-yl)-5,5-difluoro-5a-methyl-1,4,4a,5,5a,6-hexahydrocyclopropa[f]indazole-3-carboxamide]
–	11%	–	CC1(C)CCc2c(-c3cc4ccc(C(=O)N5CCN(CC6CCN(c7ccc(C8CCC(=O)NC8=O)cn7)CC6)CC5)cc4[nH]3)n[nH]c2C1 (centres unmarked) [Compound 26, 3-(6-(4-((4-(2-(6,6-dimethyl-4,5,6,7-tetrahydro-1H-indazol-3-yl)-1H-indole-6-carbonyl)piperazin-1-yl)methyl)piperidin-1-yl)pyridin-3-yl)piperidine-2,6-dione]
